Test results: the supplement of paper PMC11208160

assay: recombinant UMI read abundance after kanamycin selection (control-corrected) (log10(CPM+1)); higher = more efficient recombination; extreme values may be limits of the assay; sequences stand for … in AGTGCAGAGAAAATCGGCCAGTTTTCTCTGCCTGCAGTCCGCATGCCGTGGGACCCCTTGGGTTCTAACCTGTTGCCTAGATTTATGCAGCGGACTGCCTTTCTCCCAAAGTGATAAACCGG…AGGTTGGTTTCACT; site = the 11-nt donor
How it was run: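 Sequencing read counts were converted to CPM, averaged over two replicates and scaled by control-derived factors. Results are given as log10(CPM+1). The reads covered the donor–target junction of recombinant UMIs from a pooled Escherichia coli screen of donor and donor-binding-loop pairs for the IS621 bridge recombinase.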
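Note: IS621 bridge recombinase in Escherichia coli cells against a fixed T5 target plasmid.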

“TGATGAGCATGGACCGGTTTTCCCGGTAATCCGTATTTGGG (site TTATGAGCTCC)” and “TGATTAGCATGGACCGGTTTTCCCGGTAATCCGTATTTGGG (site TGATTAGCTCC)” are within 0.2 log units of each other in “recombinant UMI read abundance (log10)” value: 0.0217 for the first, 0 for the second.

Going from “TGCACCACATGGACCGGTTTTCCCGGTAATCCGTATTTGCT (site TGCACCACTAG)” to “TGCACGGCATGGACCGGTTTTCCCGGTAATCCGTATTTGTT (site TGCACGGCTAA)”, the “recombinant UMI read abundance (log10)” value falls from 1.3 to 0.724.

“TGCCACCCATGGACCGGTTTTCCCGGTAATCCGTATTTGTT (site AGCCACCCTAA)” and “TGCCACCCATGGACCGGTTTTCCCGGTAATCCGTATTTGTT (site CGCCACCCTAA)” are within 0.2 log units of each other in “recombinant UMI read abundance (log10)” value: 0.00473 for the first, 0.0165 for the second.

“TGCCACCCATGGACCGGTTTTCCCGGTAATCCGTATTTGTT (site GGCCACCCTAA)” and “TGCCACCCATGGACCGGTTTTCCCGGTAATCCGTATTTGTT (site TGCCACCCTAA)” are within 0.2 log units of each other in “recombinant UMI read abundance (log10)” value: 0.00763 for the first, 0.0117 for the second.

“TGCCATGCATGGACCGGTTTTCCCGGTAATCCGTATTTGCC (site TGCCATGCTGG)” and “TGCCCAACATGGACCGGTTTTCCCGGTAATCCGTATTTGGT (site TGCCCAACTAC)” are within 0.2 log units of each other in “recombinant UMI read abundance (log10)” value: 0.0153 for the first, 0.06 for the second.

“TGCCCTGCATGGACCGGTTTTCCCGGTAATCCGTATTTGTT (site TGCCCTGCTAA)” and “TGCCTATCATGGACCGGTTTTCCCGGTAATCCGTATTTGTT (site TGCCTATCTAA)” are within 0.2 log units of each other in “recombinant UMI read abundance (log10)” value: 0.0362 for the first, 0.0105 for the second.

“TGCCTCGCATGGACCGGTTTTCCCGGTAATCCGTATTTGGG (site TGCCTCGCTCC)” and “TGCGAGCCATGGACCGGTTTTCCCGGTAATCCGTATTTGAA (site TGCGAGCCTTT)” are within 0.2 log units of each other in “recombinant UMI read abundance (log10)” value: 0.0166 for the first, 0.00414 for the second.

Compared with “TGCGAGGCATGGACCGGTTTTCCCGGTAATCCGTATTTGTA (site TGCGAGGCTTA)”, “TGCGCTTCATGGACCGGTTTTCCCGGTAATCCGTATTTGGG (site TGCGCTTCTCC)” is lower in “recombinant UMI read abundance (log10)” value: 1.41 for the first, 0.0195 for the second.

“TGCGGACCATGGACCGGTTTTCCCGGTAATCCGTATTTGCA (site TGCGGACCTTG)” and “TGCGGACCATGGACCGGTTTTCCCGGTAATCCGTATTTGCT (site TGCGGACCTAG)” are within 0.2 log units of each other in “recombinant UMI read abundance (log10)” value: 0 for the first, 0.00621 for the second.

First: TGCGTGACATGGACCGGTTTTCCCGGTAATCCGTATTTGAT (site TGCGTGACTAT)
Second: TGCGTGTCATGGACCGGTTTTCCCGGTAATCCGTATTTGCC (site TGCGTGTCTGG)
The “recombinant UMI read abundance (log10)” value of the first is lower: 1.94 for the first, 2.33 for the second.

Compared with “TGCTATACATGGACCGGTTTTCCCGGTAATCCGTATTTGAT (site TGCTATACTAT)”, “TGCTCAGCATGGACCGGTTTTCCCGGTAATCCGTATTTGTT (site TGCTCAGCTAA)” is lower in “recombinant UMI read abundance (log10)” value: 0.285 for the first, 0 for the second.

“TGCTCCCCATGGACCGGTTTTCCCGGTAATCCGTATTTGTA (site TGATCCCCTTA)” and “TGCTCCCCATGGACCGGTTTTCCCGGTAATCCGTATTTGTA (site TGCTCCCCTTA)” are within 0.2 log units of each other in “recombinant UMI read abundance (log10)” value: 0.0151 for the first, 0.00702 for the second.

“TGCTCCCCATGGACCGGTTTTCCCGGTAATCCGTATTTGTA (site TGGTCCCCTTA)” and “TGCTCCCCATGGACCGGTTTTCCCGGTAATCCGTATTTGTA (site TGTTCCCCTTA)” are within 0.2 log units of each other in “recombinant UMI read abundance (log10)” value: 0.00608 for the first, 0.00224 for the second.

Compared with “TGCTCCGCATGGACCGGTTTTCCCGGTAATCCGTATTTGTG (site TGCTCCGCTCA)”, “TGCTGCACATGGACCGGTTTTCCCGGTAATCCGTATTTGAA (site TGCTGCACTTT)” is lower in “recombinant UMI read abundance (log10)” value: 0.265 for the first, 0.0328 for the second.

“TGCTGCTCATGGACCGGTTTTCCCGGTAATCCGTATTTGGT (site TGCTGCTCTAC)” and “TGCTTAGCATGGACCGGTTTTCCCGGTAATCCGTATTTGTC (site TGCTTAGCTGA)” are within 0.2 log units of each other in “recombinant UMI read abundance (log10)” value: 0.182 for the first, 0 for the second.

Compared with “TGCTTGACATGGACCGGTTTTCCCGGTAATCCGTATTTGCT (site TACTTGACTAG)”, “TGCTTGACATGGACCGGTTTTCCCGGTAATCCGTATTTGCT (site TCCTTGACTAG)” is lower in “recombinant UMI read abundance (log10)” value: 1.51 for the first, 0.0059 for the second.

Going from “TGCTTGACATGGACCGGTTTTCCCGGTAATCCGTATTTGCT (site TGCTTGACTAG)” to “TGCTTGACATGGACCGGTTTTCCCGGTAATCCGTATTTGCT (site TTCTTGACTAG)”, the “recombinant UMI read abundance (log10)” value falls from 0.922 to 0.00367.

“TGCTTGACATGGACCGGTTTTCCCGGTAATCCGTATTTGGA (site TGCTTGACTTC)” and “TGCTTGGCATGGACCGGTTTTCCCGGTAATCCGTATTTGAA (site TGCTTGGCTTT)” are within 0.2 log units of each other in “recombinant UMI read abundance (log10)” value: 0.355 for the first, 0.485 for the second.

“TGCTTGGCATGGACCGGTTTTCCCGGTAATCCGTATTTGGT (site TGCTAGGCTAC)” and “TGCTTGGCATGGACCGGTTTTCCCGGTAATCCGTATTTGGT (site TGCTCGGCTAC)” are within 0.2 log units of each other in “recombinant UMI read abundance (log10)” value: 0.011 for the first, 0 for the second.

“TGCTTGGCATGGACCGGTTTTCCCGGTAATCCGTATTTGGT (site TGCTGGGCTAC)” and “TGCTTGGCATGGACCGGTTTTCCCGGTAATCCGTATTTGGT (site TGCTTGGCTAC)” are within 0.2 log units of each other in “recombinant UMI read abundance (log10)” value: 0.155 for the first, 0.0115 for the second.

Compared with “TGGAAAACATGGACCGGTTTTCCCGGTAATCCGTATTTGCA (site AGGAAGACTTG)”, “TGGAAAACATGGACCGGTTTTCCCGGTAATCCGTATTTGCA (site TGGAAAACTTG)” is higher in “recombinant UMI read abundance (log10)” value: 0.218 for the first, 2.24 for the second.

Compared with “TGGACAGCATGGACCGGTTTTCCCGGTAATCCGTATTTGCT (site TGGACAGCTAG)”, “TGGACATCATGGACCGGTTTTCCCGGTAATCCGTATTTGCT (site AGGACATCTAG)” is lower in “recombinant UMI read abundance (log10)” value: 2.26 for the first, 1.44 for the second.

First: TGGACATCATGGACCGGTTTTCCCGGTAATCCGTATTTGCT (site CGGACATCTAG)
Second: TGGACATCATGGACCGGTTTTCCCGGTAATCCGTATTTGCT (site GGGACATCTAG)
The “recombinant UMI read abundance (log10)” value of the first is higher: 2.04 for the first, 0.348 for the second.

Compared with “TGGACATCATGGACCGGTTTTCCCGGTAATCCGTATTTGCT (site TGGACATCTAG)”, “TGGACCACATGGACCGGTTTTCCCGGTAATCCGTATTTGAT (site TGGACCACTAT)” is lower in “recombinant UMI read abundance (log10)” value: 1.69 for the first, 0.721 for the second.

Compared with “TGGAGCGCATGGACCGGTTTTCCCGGTAATCCGTATTTGGG (site TGGAGCGCTCC)”, “TGGAGTTCATGGACCGGTTTTCCCGGTAATCCGTATTTGTA (site TGGAGTTCTTA)” is higher in “recombinant UMI read abundance (log10)” value: 0.0132 for the first, 1.31 for the second.

First: TGGATTTCATGGACCGGTTTTCCCGGTAATCCGTATTTGCA (site TGGATTTCTTG)
Second: TGGCATCCATGGACCGGTTTTCCCGGTAATCCGTATTTGTT (site CGGAATCCTAA)
The “recombinant UMI read abundance (log10)” value of the first is higher: 0.673 for the first, 0 for the second.

“TGGCATCCATGGACCGGTTTTCCCGGTAATCCGTATTTGTT (site TGGCATCCTAA)” and “TGGCCACCATGGACCGGTTTTCCCGGTAATCCGTATTTGTT (site TGGCCACCTAA)” are within 0.2 log units of each other in “recombinant UMI read abundance (log10)” value: 0.165 for the first, 0.0258 for the second.

“TGGCCAGCATGGACCGGTTTTCCCGGTAATCCGTATTTGGC (site TGGCCAGCTGC)” and “TGGCCAGCATGGACCGGTTTTCCCGGTAATCCGTATTTGGC (site TGGCCCGCTGC)” are the same in “recombinant UMI read abundance (log10)” value: 0 for the first, 0 for the second.

“TGGCCAGCATGGACCGGTTTTCCCGGTAATCCGTATTTGGC (site TGGCCGGCTGC)” and “TGGCCAGCATGGACCGGTTTTCCCGGTAATCCGTATTTGGC (site TGGCCTGCTGC)” are within 0.2 log units of each other in “recombinant UMI read abundance (log10)” value: 0 for the first, 0.017 for the second.

“TGGCCGACATGGACCGGTTTTCCCGGTAATCCGTATTTGGC (site TGGCCGACTGC)” and “TGGCCGACATGGACCGGTTTTCCCGGTAATCCGTATTTGGC (site TGGCCGCCTGC)” are the same in “recombinant UMI read abundance (log10)” value: 0 for the first, 0 for the second.

“TGGCCGACATGGACCGGTTTTCCCGGTAATCCGTATTTGGC (site TGGCCGGCTGC)” and “TGGCCGACATGGACCGGTTTTCCCGGTAATCCGTATTTGGC (site TGGCCGTCTGC)” are within 0.2 log units of each other in “recombinant UMI read abundance (log10)” value: 0.00648 for the first, 0 for the second.

“TGGCCGGCATGGACCGGTTTTCCCGGTAATCCGTATTTGAC (site TGGCCGGCTGA)” and “TGGCCGGCATGGACCGGTTTTCCCGGTAATCCGTATTTGAC (site TGGCCGGCTGC)” are within 0.2 log units of each other in “recombinant UMI read abundance (log10)” value: 0.00628 for the first, 0 for the second.

Compared with “TGGCCGGCATGGACCGGTTTTCCCGGTAATCCGTATTTGAC (site TGGCCGGCTGG)”, “TGGCCGGCATGGACCGGTTTTCCCGGTAATCCGTATTTGAC (site TGGCCGGCTGT)” is higher in “recombinant UMI read abundance (log10)” value: 0 for the first, 1.4 for the second.

“TGGCCGGCATGGACCGGTTTTCCCGGTAATCCGTATTTGGT (site TGGCCGGCTAC)” and “TGGCCGGCATGGACCGGTTTTCCCGGTAATCCGTATTTGGT (site TGGCCGGCTCC)” are within 0.2 log units of each other in “recombinant UMI read abundance (log10)” value: 0.0121 for the first, 0.022 for the second.
